Several values for one entry are separate records, joined by “and”; a condition that tells them apart may be missing. Equal values may be shown once. Read-outs that look alike come from different tables or passages of the source. Ends that are not written are not given here. * marks the point of attachment. FITC = O=C1OC2(c3ccc(O)cc3Oc3cc(O)ccc32)c2ccc(NC(=S)*)cc21
How the values were obtained:
KIX domain of mouse CBP [1] = target: T1, KIX domain of mouse CBP (Mus musculus, UniProt P45481); test: Stopped-flow anisotropy kinetics, temperature dependence; format: binding
T1 construct: KIX domain of mouse CBP (Uniprot 45481, residues 586–672); hexahistidine tag with thrombin cleavage site (N, cleaved yes); made in house; host or cells: Escherichia coli C41 (DE3)
Procedure: The synthetic gene for the KIX domain of mouse CBP (Uniprot 45481, residues 586–672) was obtained from Genscript. The gene was inserted into a modified version of the pRSET A vector that encodes an N-terminal hexahistidine tag with a thrombin cleavage site between the tag and the protein. Protein expression was carried out in Escherichia coli C41 (DE3) grown in 2xTY media at 37 °C. Expression was induced once the cells reached an optical density of 0.4–0.6 AU at 600 nm, by adding IPTG to a final concentration of 0.1 mM and reducing the temperature to 18 °C. The cells were grown overnight and harvested by centrifugation. […] Bound protein was eluted with 250 mM imidazole, and the his-tag cleaved by overnight incubation with thrombin at room temperature. The protein was further purified by gel filtration using a Superdex G75 column in pH 7.4 100 mM sodium phosphate buffer. For ionic strength studies, KIX protein was buffer exchanged and stored in ddH2O. The concentration of KIX stocks was determined using an extinction coefficient of 12 009 M^–1 cm^–1 at 280 nm obtained by the method of Gill von Hippel.[18]
N-terminally labeled FITC-cMyb peptide (Uniprot P06876, residues 291–315) was purchased from Biomatik. 1 mg aliquots were dissolved at 1–2 mg/mL in ddH2O as required. The stock concentration was determined from the absorbance at 493 nm of a 20-fold dilution into biophysical buffer, using an extinction coefficient of 75 000 M^–1 cm^–1. Sodium phosphate, MOPS, and sodium chloride were purchased from Sigma. […]
(§1) Association kinetics were monitored by following the change in anisotropy of FITC-cMyb on binding using a SX20 stopped-flow spectrometer (Applied Photophysics) with an FP1 fluorescence polarization accessory. […] Anisotropy values reported from stopped-flow have not been corrected for background fluorescence.
In temperature studies, KIX solutions of various concentrations were mixed 1:1 with 1 μM FITC-cMyb. […] Dissociation rate constants (koff) were calculated from the relation koff = Kdkon, which is appropriate for two-state bimolecular reactions (see Results). […]

KIX domain of mouse CBP [2] = target: T1, KIX domain of mouse CBP; test: Stopped-flow anisotropy kinetics, ionic strength dependence (MOPS); format: binding
Procedure: Two separate buffer types were utilized in these studies. First, 100 mM sodium phosphate buffer, pH 7.4, the pH of which is relatively insensitive to temperature changes, was used for the temperature studies. Second, 20 mM MOPS (pH 7.30 ± 0.02 at 10 °C) with a range of sodium chloride concentrations was used in ionic strength studies. MOPS buffers in the same range as phosphate but has a lower ionic strength because of its lower valency, enabling a larger range of ionic strengths to be investigated. We observed that the rate of association was slightly lower in phosphate buffer, considering our estimates of its ionic strength. In addition, 0.05% tween-20 was included in all biophysical buffers to avoid nonspecific interactions with plastic-ware.
In preparing solutions for kinetic assays, dilutions of KIX and FITC-cMyb stocks were weighed, so that accurate concentrations (accounting for solution density) were obtained.
as §1, with “fluorescence. […]” for “fluorescence.”
The variation in association rate constant with ionic strength (I) was modeled with a Debye–Huckel-like approximation that has been determined empirically (eq 4).[24] […]

[3] = cited from earlier work
Procedure: The charge on KIX and cMyb at pH 7.4 was estimated using average pKa values reported for amino acids in globular proteins and model peptides.[54] The charge for FITC-cMyb was corrected to account for N-terminal addition of FITC. At pH 7.3–7.4 and 25 °C, fluoroscein exists predominantly as a dianion (∼90%), with some anion (∼10%), the equilibrium between the two species being described by a protolytic constant of 6.43.[27]

[4] = Circular dichroism, secondary structure; format: physicochemical; settings: CD
Procedure: Circular dichroism (CD) scans were performed with an Applied Photophysics Chirascan, in cuvettes of 1 or 0.2 mm path length. In mixing experiments, individual solutions of FITC-cMyb and KIX in pH 7.4 100 mM sodium phosphate (0.05% tween-20) were prepared, and aliquots removed for mixing in a 1:1 ratio. Spectra were obtained for all three solutions and buffer subtracted. The expected spectrum in the absence of protein interaction was calculated as the average of the two spectra for the individual protein solutions. Helical content for FITC-cMyb alone was variously estimated as 28, 30, and 37% using the methods of Perez-Iratxeta et al.,[19] Morriset et al.,[20] and Chen et al.,[21] respectively.

CBP KIX (Mus musculus) = CBP KIX (Mus musculus) (UniProt P45481); settings: cited from earlier work
KIX [5] = settings: pH 7, 27 °C; read-out: dissociation constant of unlabeled cMyb by ITC; cited from earlier work
Source text: Second, the peptide was still observed to bind to KIX protein. On mixing FITC-cMyb with KIX, a reliable increase in the an ...

[6] = test system: pseudo-wild-type of KIX with a single point tryptophan mutation in the binding site (and an attached his-tag); settings: cited from earlier work
Source text: Association kinetics for this complex have recently been reported by Gianni et al., for a pseudo-wild-type of KIX with a single point tryptophan mutation in the binding site (and an attached his-tag).[46] […] After correction for the expected number of molecule collisions, the rate is still temperature dependent (Figure 3), which indicates the presence of an activation barrier that slows the association process. We stop short of interpreting the gradient of this plot (10.9 ± 0.7 kcal/mol) as the enthalpic barrier for folding. First, from CD denaturation studies (Figure S4, Supporting Information), it is clear that even over this narrow range of temperature there are conformatio ...

KIX [7] = settings: NMR structure of the complex; cited from earlier work
Source text: We confirmed this increase in helicity on binding by comparing CD measurements of the individual components and mixtures ...

barnase = settings: with barnase, cited from earlier work
Source text: Although these rates are fast, they are nothing remarkable in themselves. […] The most famous example of such rate enhancement is for the two folded proteins barnase and barstar, which have been described as “ultrafast” associating proteins. At low ionic strengths, the reported kon is over 5 × 10^9 M^–1 s^–1; however, extrapolation to infinite ionic strength to obtain an esti ...

[8] = target: KIX domain of mouse CBP (residues 586-672) (mouse, UniProt P45481 586-672); test: fluorescence polarisation; equilibrium anisotropy; 1 uM FITC-cMyb incubated 1 h with varying concentrations of KIX; 100 mM sodium phosphate pH 7.4, 0.05% tween-20; 25 °C; fit to eq 2; settings: both partners purified
Chain of KIX domain of mouse CBP (residues 586-672) (P45481 586-672): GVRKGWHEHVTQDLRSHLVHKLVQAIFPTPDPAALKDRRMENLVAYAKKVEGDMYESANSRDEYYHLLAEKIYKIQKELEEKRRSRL

T1 sequence (P45481 586-672): as above
Chain of CBP KIX (Mus musculus) (P45481 583-668): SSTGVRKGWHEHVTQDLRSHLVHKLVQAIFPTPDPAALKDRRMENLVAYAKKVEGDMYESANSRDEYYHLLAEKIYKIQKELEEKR

Molecule: CC[C@H](C)[C@H](NC(=O)[C@H](CCCNC(=N)N)NC(=O)[C@H](CCCCN)NC(=O)[C@H](CCC(=O)O)NC(=O)[C@H](CCCCN)NC(=S)Nc1ccc2c(c1)C(=O)OC21c2ccc(O)cc2Oc2cc(O)ccc21)C(=O)N[C@@H](CCCCN)C(=O)N[C@@H](CCC(=O)O)C(=O)N[C@@H](CC(C)C)C(=O)N[C@@H](CCC(=O)O)C(=O)N[C@@H](CC(C)C)C(=O)N[C@@H](CC(C)C)C(=O)N[C@@H](CC(C)C)C(=O)N[C@@H](CCSC)C(=O)N[C@@H](CO)C(=O)N[C@H](C(=O)N[C@@H](CCC(=O)O)C(=O)N[C@@H](CC(N)=O)C(=O)N[C@@H](CCC(=O)O)C(=O)N[C@@H](CC(C)C)C(=O)N[C@@H](CCCCN)C(=O)NCC(=O)N[C@@H](CCC(N)=O)C(=O)N[C@@H](CCC(N)=O)C(=O)N[C@@H](C)C(=O)N[C@@H](CC(C)C)C(=O)O)[C@@H](C)O [FITC-cMyb]
- koff (KIX domain of mouse CBP [1]; 25 °C, extrapolated from temperature dependence, pH 7.4 100 mM sodium phosphate, read-out: koff extrapolated to 25 °C): 230 ± 20 s⁻¹
- kon (KIX domain of mouse CBP [1]; pH 7.4, read-out: kon extrapolated to 25 °C): ~2.2e+07 M⁻¹ s⁻¹
- koff (KIX domain of mouse CBP [1]; physiological conditions, expected, read-out: dissociation rate under physiological conditions): > 300 s⁻¹
- kon (KIX domain of mouse CBP [2]; 25 °C, from 10 °C basal rate and temperature dependence study, read-out: basal association rate constant estimated at 25 °C): 2.1e+07 M⁻¹ s⁻¹
- kon (KIX domain of mouse CBP [2]; pH 7.3, 10 °C, 20 mM MOPS pH 7.30, extrapolated with Debye–Huckel-like approximation (eq 4), read-out: basal association rate constant (infinite ionic strength)): 7.7e+06 M⁻¹ s⁻¹

Molecule: O=C1OC2(c3ccc(O)cc3Oc3cc(O)ccc32)c2ccccc21 [fluoroscein]
- protolytic constant (dianion/anion) ([3]; 25 °C): 6.43
- fraction as anion ([3]; pH 7.3–7.4, 25 °C): ~10%
- fraction as dianion ([3]; pH 7.3–7.4, 25 °C): ~90%

Molecule: KIX: KIX domain of mouse CBP (Uniprot 45481, residues 586–672)
- reversibility of thermal denaturation / aggregation ([4]; 10 to 80 °C, indicative of aggregation at higher temperatures): Apparent nonreversibility
- secondary structure over ionic strength range ([4]; MOPS buffers, 10 to 750 mM ionic strength, 10 °C): no significant change in the secondary structure
- effect of temperature on helical content ([4]; thermal denaturation, pH 7.4 100 mM sodium phosphate, 10 to 80 °C): Helical content was reduced on increasing temperature

Molecule: cMyb transactivation domain (from UniProt P06876)
- Kd (CBP KIX (Mus musculus)): 10 µM and 12.5 µM

Molecule: cMyb: 25 amino acid peptide from the TAD of cMyb, unlabeled
- residual α-helical content, unbound state (summary) ([4]; free peptide, pH 7.4 100 mM sodium phosphate): around 30%
- Kd (KIX [5]): 10 µM
- fold lower binding affinity than reported here ([6]; 25 °C, relatively similar buffer conditions, complex with pseudo-wild-type KIX): 3 fold
- decrease of dissociation rate on partial helix stabilization by TFE ([6]; TFE): around 5 fold
- increase of association rate on partial helix stabilization by TFE ([6]; TFE): around 1.4 fold
- kon, Gianni et al. ([6]; compared at 25 °C, pseudo-wild-type his-tagged KIX): (2.5 ± 0.1) × 10^7 M^–1 s^–1
- amino acids in a helix in the bound form (KIX [7]): 70%

B1: barstar: two folded proteins barnase and barstar, described as ultrafast associating proteins (protein, UniProt P11540 2-90, looked up)
Barstar: KKAVINGEQIRSISDLHQTLKKELALPEYYGENLDALWDCLTGWVEYPLVLEWRQFEQSKQLTENGAESVLQVFREAKAEGCDITIILS
- basal kon, infinite ionic strength (barnase; extrapolated to infinite ionic strength): around 10^5 M^–1 s^–1
- kon at low ionic strength (barnase; low ionic strengths): over 5 × 10^9 M^–1 s^–1

Molecule: {FITC}-KEKRIKELELLLMSTENELKGQQAL (peptide, UniProt P06876 291-315, looked up)
- Kd [8]: 10.5 ± 0.7 µM

— paper PMC3807845 (The Journal of Physical Chemistry. B, 2013)
